Converted amounts (≈) assume the structure as drawn.
Key:
spores of Ulva pertusa = test: inhibitory effect test against the mobility of the spores of Ulva pertusa (Example 2 fractions); format: cell-based
Method: The effects of the fractions I-VI on the inhibition of attachment of fouling organisms were tested on Ulva pertusa, one of typical fouling algae. Ulva pertusa was collected in Kyongpodae, Kangnung-city, Kangwon-Do, Korea. The collected seaweed was transported to a laboratory in which only Ulva pertusa was screened. In order to remove fouling organisms, the screened algae were treated three times with supersonic waves for 1 minute for each time, and then washed clean with sterilized seawater. The washed algae were simply sterilized by immersion in a mixed solution of 1% betadine and 2% trition X-100 for 1 minute, followed by semi-drying. The semi-dried Ulva pertusa was added to sterilized seawater and placed in a 80 μmol m^−2s^−, 20° C. incubator to induce the release of spores.
10 μl of dimethyl sulfoxide (DMSO) was placed in a prepared tube, to which the seawater having spores released therein was then added. […] Before inoculation with each fraction at each dilution concentration, the movement of spores in the seawater was examined and the result was used as a comparison with a control group.

mice = test: safety test, single administration to mice, observed for 7 days; format: in vivo, mouse; conditions: 10 mg/kg, 10 mice per group
Method: Each of hexadecane, octadecane, eicosane, 1-eicosanol, 1-pentadecanol, dibutyl phthalate, dioctyl phthalate, diisononyl phthalate, dicyclohexyl phthalate, and 6-formyl-3,4-dehydro-2,8-dimethyl-2-(3′,6′-dienyl-8′-hydroxy-4′-methylnonane)-2H-1-benzopyrane is dissolved in dimethylsulfoxide (DMSO) and diluted with water.

in vivo = test: in vivo
Method: Methyl stearate is an opaque white-colored crystal and has the following physical properties: a melting point of 40-42° C., and a boiling point of 181-182° C.

Enteromorpha spores = test: inhibitory activity test against the mobility of Enteromorpha spores (Sargassum confusum fractions, Tables 5-8); format: cell-based
Staphylococcus aureus = test: minimum inhibitory concentration (MIC) by two-fold serial dilution in nutrient broth; format: cell-based; conditions: 30° C., 48 hours
Text: (§1) A liquid medium obtained by diluting PAGS by two-fold serial dilution was placed on a 96-multiwell plate and inoculated with 10^4 cfu/ml of microorganisms. […] The liquid medium used in the test was a nutrient broth (Difco).

Aspergillus niger = test: as above; format: cell-based; conditions: 30° C., 48 hours
Text: as §1

[1] = fish toxicity against water; conditions: Blugil fish (a kind of trout), in vivo, other: exposure in water
Method: The physical properties of methyl palmitate are as follows: a melting point of 32-34° C., a boiling point of 163-164° C., and a density of 0.852. […] Blugil fish which is a kind of trout was tested for toxicity against water, the result was as follows: LC50=1000 ml/l.

human body = conditions: in vivo
eyes of rabbits = conditions: rabbit, in vivo
[2] = oral toxicity of methyl palmitate in mice; conditions: mouse, in vivo, administered orally to mice
[3] = ratio 1:0 (not explained; test of PAGS)
[4] = ratio 3:1 (not explained; test of PAGS)

Row | Compound | Mobility inhibitory activity (spores of Ulva pertusa; 125 μg/ml) | Mobility inhibitory activity (spores of Ulva pertusa; 250 μg/ml) | Mobility inhibitory activity (spores of Ulva pertusa; 500 μg/ml) | Mobility inhibitory activity (spores of Ulva pertusa; 1,000 μg/ml) | Mobility inhibitory activity (spores of Ulva pertusa; 2,000 μg/ml) | Mobility inhibitory activity (spores of Ulva pertusa; 4,000 μg/ml) | death of the mice (mice) | also measured
1 | CCCCCCCCCCCCCCCO [D] | ++++ (more than 95% inhibition of the mobility of spores) | ++++ (more than 95% inhibition of the mobility of spores) | ++++ (more than 95% inhibition of the mobility of spores) | ++++ (more than 95% inhibition of the mobility of spores) | ++++ (more than 95% inhibition of the mobility of spores) | ++++ (more than 95% inhibition of the mobility of spores) |  | 
2 | CCCCCCCCCCCCCCCCCCCC (single isomer, unassigned) [eicosane] |  |  |  |  |  |  | no death | 
3 | CCCCCCCCOC(=O)c1ccccc1C(=O)OCCCCCCCC [dioctyl phthalate] |  |  |  |  |  |  | no death | 
4 | O=C(OC1CCCCC1)c1ccccc1C(=O)OC1CCCCC1 [H] | ++++ (more than 95% inhibition of the mobility of spores) | ++++ (more than 95% inhibition of the mobility of spores) | ++++ (more than 95% inhibition of the mobility of spores) | ++++ (more than 95% inhibition of the mobility of spores) | ++++ (more than 95% inhibition of the mobility of spores) | ++++ (more than 95% inhibition of the mobility of spores) |  | 
5 | CCCCCCCCCCCCCCCCCCCC [B] | ++++ (more than 95% inhibition of the mobility of spores) | ++++ (more than 95% inhibition of the mobility of spores) | ++++ (more than 95% inhibition of the mobility of spores) | ++++ (more than 95% inhibition of the mobility of spores) | ++++ (more than 95% inhibition of the mobility of spores) | ++++ (more than 95% inhibition of the mobility of spores) |  | 
6 | CCCCCCCCCCCCCCCCCC(=O)OC [methyl stearate] |  |  |  |  |  |  |  | LD50 (in vivo; in vivo, species and route not given): > 17200 mg/kg; stimulus (in vivo; suction, intake, epidermal absorption): gives no stimulus
7 | CCCCCCCCCCCCCCCCCCCCO [C] | ++++ (more than 95% inhibition of the mobility of spores) | ++++ (more than 95% inhibition of the mobility of spores) | ++++ (more than 95% inhibition of the mobility of spores) | ++++ (more than 95% inhibition of the mobility of spores) | ++++ (more than 95% inhibition of the mobility of spores) | ++++ (more than 95% inhibition of the mobility of spores) |  | 
8 | CCCCCCCCCCCCCCCCCCCCO [Example 1-eicosanol, 1-eicosanol] |  |  |  |  |  |  | no death | 
9 | CCCCOC(=O)c1ccccc1C(=O)OCCCC [dibutyl phthalate] |  |  |  |  |  |  | no death | 
10 | CCCCCCCCCCCCCCCCCC [octadecane] |  |  |  |  |  |  | no death | 
11 | CC(C)CCCCCCOC(=O)c1ccccc1C(=O)OCCCCCCC(C)C [G] | ++++ (more than 95% inhibition of the mobility of spores) | ++++ (more than 95% inhibition of the mobility of spores) | ++++ (more than 95% inhibition of the mobility of spores) | ++++ (more than 95% inhibition of the mobility of spores) | ++++ (more than 95% inhibition of the mobility of spores) | ++++ (more than 95% inhibition of the mobility of spores) |  | 
12 | 6-formyl-3,4-dehydro-2,8-dimethyl-2-(3′,6′-dienyl-8′-hydroxy-4′-methylnonane)-2H-1-benzopyrane |  |  |  |  |  |  | no death | Activity (inhibition of the mobility of spores) (Enteromorpha spores; 125 μg/ml): ++++ (more than 95% inhibition of the mobility of spores); Activity (inhibition of the mobility of spores) (Enteromorpha spores; 250 μg/ml): ++++ (more than 95% inhibition of the mobility of spores); Activity (inhibition of the mobility of spores) (Enteromorpha spores; 500 μg/ml): ++++ (more than 95% inhibition of the mobility of spores); Activity (inhibition of the mobility of spores) (Enteromorpha spores; 1,000 μg/ml): ++++ (more than 95% inhibition of the mobility of spores); Activity (inhibition of the mobility of spores) (Enteromorpha spores; 2,000 μg/ml): ++++ (more than 95% inhibition of the mobility of spores); Activity (inhibition of the mobility of spores) (Enteromorpha spores; 4,000 μg/ml): ++++ (more than 95% inhibition of the mobility of spores); MIC Staphylococcus aureus 1:0 (Staphylococcus aureus; [3]): 4; MIC Staphylococcus aureus 3:1 (Staphylococcus aureus; [4]): 1; MIC Aspergillus niger 1:0 (Aspergillus niger; [3]): 10; MIC Aspergillus niger 3:1 (Aspergillus niger; [4]): 2
13 | CCCCOC(=O)c1ccccc1C(=O)OCCCC [E] | ++++ (more than 95% inhibition of the mobility of spores) | ++++ (more than 95% inhibition of the mobility of spores) | ++++ (more than 95% inhibition of the mobility of spores) | ++++ (more than 95% inhibition of the mobility of spores) | ++++ (more than 95% inhibition of the mobility of spores) | ++++ (more than 95% inhibition of the mobility of spores) |  | 
14 | CCCCCCCCOC(=O)c1ccccc1C(=O)OCCCCCCCC [F] | ++++ (more than 95% inhibition of the mobility of spores) | ++++ (more than 95% inhibition of the mobility of spores) | ++++ (more than 95% inhibition of the mobility of spores) | ++++ (more than 95% inhibition of the mobility of spores) | ++++ (more than 95% inhibition of the mobility of spores) | ++++ (more than 95% inhibition of the mobility of spores) |  | 
15 | CCCCCCCCCCCCCCCC(=O)OC [methyl palmitate] |  |  |  |  |  |  |  | LC50 [1]: 1000 µg/mL (≈ 3.7 mM); stimulus to skin (human body): only a very mild stimulus remained; stimulus to eyes (eyes of rabbits): only a transient stimulus phenomenon occurred; LD50 [2]: > 20000 mg/kg
16 | O=C(OC1CCCCC1)c1ccccc1C(=O)OC1CCCCC1 [dicyclohexyl phthalate] |  |  |  |  |  |  | no death | 
17 | CC(C)CCCCCCOC(=O)c1ccccc1C(=O)OCCCCCCC(C)C [diisononyl phthalate] |  |  |  |  |  |  | no death | 
18 | CCCCCCCCCCCCCCCO [1-pentadecanol] |  |  |  |  |  |  | no death | 
19 | CCCCCCCCCCCCCCCC [hexadecane] |  |  |  |  |  |  | no death | 

Source: patent US20080194673A1, “Environment-Friendly Pollution-Proof Agent” (priority 2004, published 2008)
